Where a name gives a salt, the structure may show the parent alone.

This assay deals with T1, mouse semaphorin 3A (Sema3A) (Mus musculus, UniProt O08665).
T1 sequence (O08665 21-772): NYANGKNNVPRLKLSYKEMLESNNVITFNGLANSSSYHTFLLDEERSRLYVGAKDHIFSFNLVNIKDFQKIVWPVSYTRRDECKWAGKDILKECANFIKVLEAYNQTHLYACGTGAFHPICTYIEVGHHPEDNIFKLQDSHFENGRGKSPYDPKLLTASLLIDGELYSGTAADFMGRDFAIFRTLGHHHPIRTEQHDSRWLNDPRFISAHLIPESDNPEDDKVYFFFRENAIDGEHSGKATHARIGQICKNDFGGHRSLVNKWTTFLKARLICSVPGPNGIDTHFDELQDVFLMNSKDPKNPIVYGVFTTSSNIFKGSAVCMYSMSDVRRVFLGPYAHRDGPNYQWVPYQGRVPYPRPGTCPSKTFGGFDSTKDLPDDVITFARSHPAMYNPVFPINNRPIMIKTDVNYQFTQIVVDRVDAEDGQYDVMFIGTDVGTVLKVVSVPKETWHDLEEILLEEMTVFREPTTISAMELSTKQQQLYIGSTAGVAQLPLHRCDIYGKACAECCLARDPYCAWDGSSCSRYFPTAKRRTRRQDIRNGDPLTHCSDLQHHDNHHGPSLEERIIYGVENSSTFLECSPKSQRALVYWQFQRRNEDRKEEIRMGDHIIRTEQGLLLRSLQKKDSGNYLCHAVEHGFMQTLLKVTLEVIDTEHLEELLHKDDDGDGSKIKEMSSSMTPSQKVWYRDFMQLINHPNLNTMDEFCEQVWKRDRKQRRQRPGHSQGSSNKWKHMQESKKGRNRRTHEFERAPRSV
Kind of assay: Inhibitory activity for the collapse activity caused by Sema3A (growth cone collapse assay, Test 1). Format: cell-based. To be noted: chick embryo dorsal root ganglion, 3 units/mL mouse Sema3A, smaller value = more potent inhibition, read-out: residual ratio (%) of Sema3A activity (collapse assay); for remaining activity at 1 µM: 1 μM test compound; for remaining activity at 3 µM: 3 μM test compound; for remaining activity at 10 µM: 10 μM test compound. On the procedure:
Inhibitory Activity for the Collapse Activity Caused by Sema3A
96 well-plate (SUMITOMO BAKELITE CO., LTD.) which was beforehand coated with polylysine was further coated with laminin (10 μL laminin, at room temperature, for 1 hour). To each well was added 100 μL of a medium (F12 medium containing 10% fetal bovine serum, 20 ng/mL NGF, 100 unit/mL penicillin, and 100 μg/mL streptomycin). Dorsal root ganglion harvested from 7-8 day-old chick embryo was inoculated thereto, and the culture medium was cultivated under the condition of 5% CO2 and 37° C. for 16-20 hours. And then, each test compound in various concentrations was added to the medium, each test medium was cultivated for 30 minutes, 3 units/mL mouse semaphorin 3A (Sema3A) was added to each medium, and then each test medium was cultivated for more 30 minutes. Then, glutaraldehyde was added to the medium, in which the final concentration of glutaraldehyde was 1%. The medium was left to stand at room temperature for 15 minutes to make the tissue fragment fixed, and the ratio of the retracted growth cone was measured under a microscope.

With `Cn1cc(-c2coc3cc(O)c(O)c(C(=O)O)c3c2=O)c(=O)c2cc(O)c(O)cc21` [Example 1, 3-(6,7-Dihydroxy-1-methyl-4-oxo-1,4-dihydroquinolin-3-yl)-6,7-dihydroxy-4-oxo-4H-chromene-5-carboxylic acid], the remaining activity at 1 µM is 2% and the remaining activity at 3 µM stood at 4.6%.
With `Cn1cc(-c2coc3cc(O)c(O)c(C(=O)OCc4cn(CC(=O)N[C@@H](CCCNC(=N)N)C(=O)O)nn4)c3c2=O)c(=O)c2cc(O)c(O)cc21` [Example 4, N^2-({4-[({[3-(6,7-Dihydroxy-1-methyl-4-oxo-1,4-dihydroquinolin-3-yl)-6,7-dihydroxy-4-oxo-4H-chromen-5-yl]carbonyl}oxy)methyl]-1H-1,2,3-triazol-1-yl}acetyl)-L-arginine trifluoroacetate], the remaining activity at 1 µM is 6%.
`Cn1cc(-c2coc3cc(O)c(O)c(C(=O)N[C@@H](CCC(=O)O)C(=O)O)c3c2=O)c(=O)c2cc(O)c(O)cc21` [Example 5, N-{[3-(6,7-Dihydroxy-1-methyl-4-oxo-1,4-dihydroquinolin-3-yl)-6,7-dihydroxy-4-oxo-4H-chromen-5-yl]carbonyl}-L-glutamic acid]: the remaining activity at 1 µM stood at 5.1% and the remaining activity at 3 µM is 3.3%.
For the compound `Cc1c(-c2coc3cc(O)c(O)c(C(=O)O)c3c2=O)c(=O)c2cc(O)c(O)cc2n1C` [Example 7, 3-(6,7-Dihydroxy-1,2-dimethyl-4-oxo-1,4-dihydroquinolin-3-yl)-6,7-dihydroxy-4-oxo-4H-chromene-5-carboxylic acid], the remaining activity at 3 µM was under 70% and the remaining activity at 10 µM is under 40%.
As for `Cc1c(-c2coc3cc(O)c(O)c(C(=O)OCc4cn(CC(=O)N[C@@H](CCC(=O)O)C(=O)O)nn4)c3c2=O)c(=O)c2cc(O)c(O)cc2n1C` [Example 8, N-({4-[({[3-(6,7-Dihydroxy-1,2-dimethyl-4-oxo-1,4-dihydroquinolin-3-yl)-6,7-dihydroxy-4-oxo-4H-chromen-5-yl]carbonyl}oxy)methyl]-1H-1,2,3-triazol-1-yl}acetyl)-L-glutamic acid], the remaining activity at 1 µM was 27.3% and the remaining activity at 3 µM is 21%.
Consider `O=C(O)c1c(O)c(O)cc2occ(-c3cc4cc(O)c(O)cc4oc3=O)c(=O)c12` [Example 9, 6,6′,7,7′-Tetrahydroxy-2,4′-dioxo-2H,4′H-3,3′-bichromene-5′-carboxylic acid], for which the remaining activity at 1 µM was 3.4% and the remaining activity at 3 µM turned out to be 7.3%.
As for `O=C(O)CC[C@H](NC(=O)Cn1cc(COC(=O)c2c(O)c(O)cc3occ(-c4cc5cc(O)c(O)cc5oc4=O)c(=O)c23)nn1)C(=O)O` [Example 11, N-{[4-({[(6,6′,7,7′-Tetrahydroxy-2,4′-dioxo-2H,4′H-3,3′-bichromen-5′-yl)carbonyl]oxy}methyl)-1H-1,2,3-triazol-1-yl]acetyl}-L-glutamic acid], the remaining activity at 1 µM came to 7.9%.
Still for that read-out and setting: as for `N=C(N)NCCC[C@H](NC(=O)Cn1cc(COC(=O)c2c(O)c(O)cc3occ(-c4cc5cc(O)c(O)cc5oc4=O)c(=O)c23)nn1)C(=O)O` [Example 12, N^2-{[4-({[(6,6′,7,7′-Tetrahydroxy-2,4′-dioxo-2H,4′H-3,3′-bichromen-5′-yl)carbonyl]oxy}methyl)-1H-1,2,3-triazol-1-yl]acetyl}-L-arginine trifluoroacetate], the figure is 65.5%.
As to `Cn1c(=O)c(-c2coc3cc(O)c(O)c(C(=O)O)c3c2=O)cc2cc(O)c(O)cc21` [Example 13, 3-(6,7-Dihydroxy-1-methyl-2-oxo-1,2-dihydroquinolin-3-yl)-6,7-dihydroxy-4-oxo-4H-chromene-5-carboxylic acid], the remaining activity at 10 µM was under 70%.
